Laboratory results from ChEMBL document CHEMBL1152307, “Antimycobacterial and H1-antihistaminic activity of 2-substituted piperidine derivatives” (Bioorg Med Chem, 2008).
In brackets after ≈: the same amount, converted by molar mass.

Experiments:
[1] = Cytotoxicity against HEK293 cells after 72 hrs by MTT assay; format: cell-based; settings: human, read-out: LC50
[2] = tested on: Mycobacterium tuberculosis; test: Antimycobacterial activity against Mycobacterium tuberculosis H37Rv at 6.25 ug/ml after 4 days by microplate alamar blue assay; format: functional; settings: 96 h
[3] = tested on: Mycobacterium tuberculosis; test: Antimycobacterial activity against Mycobacterium tuberculosis H37Rv after 4 days by microplate alamar blue assay; format: functional; settings: 96 h
[4] = biological target: Histamine H1 receptor (Cavia porcellus) (UniProt P31389); test: Antagonist activity at guinea pig ileum histamine H1 receptor at 0.3 x 10'4 M; format: functional, tissue-based
Histamine H1 receptor (Cavia porcellus), sequence (P31389 whole entry): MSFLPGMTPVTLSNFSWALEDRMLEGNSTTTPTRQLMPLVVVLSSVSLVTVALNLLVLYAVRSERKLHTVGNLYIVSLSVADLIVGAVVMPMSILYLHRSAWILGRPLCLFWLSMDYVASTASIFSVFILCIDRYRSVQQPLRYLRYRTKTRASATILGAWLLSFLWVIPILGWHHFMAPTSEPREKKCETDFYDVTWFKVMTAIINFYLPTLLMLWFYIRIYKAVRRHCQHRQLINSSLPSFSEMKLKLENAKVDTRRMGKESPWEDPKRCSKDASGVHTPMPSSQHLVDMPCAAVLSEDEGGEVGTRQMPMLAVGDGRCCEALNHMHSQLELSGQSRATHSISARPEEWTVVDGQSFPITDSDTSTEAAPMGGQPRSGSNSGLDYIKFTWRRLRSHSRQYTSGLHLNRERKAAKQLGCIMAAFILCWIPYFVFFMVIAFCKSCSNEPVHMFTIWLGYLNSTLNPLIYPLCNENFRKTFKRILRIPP

SMILES	CC50 at 72 h [1] [mg/L]	inhibition at 6.25 µg/mL [2] [%]	MIC [3] [mg/L]	pKb [4]
CN1CC[C@H](N(Cc2ccccc2)c2ccccc2)CC1(C)C	69.5 (≈ 225 µM)	31	> 6.25	–
COc1ccc(N(Cc2ccccc2)[C@H]2CCN(C)C(C)(C)C2)cc1	82 (≈ 242 µM)	26	> 6.25	–
CC1(C)C[C@@H](N(Cc2ccccc2)c2ccccc2)CCN1c1ccccc1	108 (≈ 291 µM)	91	6.25 (≈ 16.9 µM)	5
CN1CC[C@H](OC(c2ccccc2)c2ccccc2)CC1(C)C	–	–	–	8.19
c1ccc(CN(c2ccccc2)[C@H]2CCN(c3ccccc3)[C@@H](c3ccccc3)C2)cc1 (relative stereo)	> 28	37	> 6.25	–
CC(C)[C@H]1C[C@@H](N(Cc2ccccc2)c2ccccc2)CCN1C (relative stereo)	35.9 (≈ 111 µM)	66	> 6.25	–
CC(C)[C@H]1C[C@@H](N(Cc2ccccc2)c2ccccc2)CCN1c1ccccc1 (relative stereo)	127 (≈ 330 µM)	7	> 6.25	–
c1ccc(CN(c2ccccc2)[C@H]2CCN(c3ccccc3)[C@H](c3ccccc3)C2)cc1 (relative stereo)	> 28	22	> 6.25	–
CC(C)[C@@H]1C[C@@H](N(Cc2ccccc2)c2ccccc2)CCN1c1ccccc1 (relative stereo)	> 28	52	> 6.25	–
CN1CCC(N(Cc2ccccc2)c2ccccc2)CC1 [BAMIPINE]	64.1 (≈ 229 µM)	29	> 6.25	–
NNC(=O)c1ccncc1 [ISONIAZID]	> 200	–	0.025 (≈ 0.182 µM)	–
CO[C@H]1/C=C/O[C@@]2(C)Oc3c(C)c(O)c4c(O)c(c(/C=N/N5CCN(C)CC5)c(O)c4c3C2=O)NC(=O)/C(C)=C\C=C\[C@H](C)[C@H](O)[C@@H](C)[C@@H](O)[C@@H](C)[C@H](OC(C)=O)[C@@H]1C [RIFAMPIN]	> 200	–	0.06 (≈ 0.0729 µM)	–
